In US20140018424A1, “PREVENTIVE EFFECT OF CITRULLINE ON THE SPONTANEOUS DEVELOPMENT OF TUMORS” (UNIVERSITE PARIS DESCARTES, priority 2011, published 2014):

Columns and labels:
Type in all cases: in vivo, male Sprague-Dawley rats
[1] = Body weight of aged rats before and after 12 weeks of supplementation
tumours = test: Incidence of tumours after euthanasia in aged rats; details: after euthanasia at 12 weeks; NEAA vs CIT p<0.05
Method: (§1) Thirty-nine male Sprague-Dawley rats aged 20 months and free of tumours (Charles River, L'Arbresle, France) are used. They are raised individually in cages, at a temperature of 20-23° C., subjected to a cycle of 12 hours of light alternating with 12 hours of darkness. They have free access to water. For the acclimatization period, all the rats are fed a standard diet (59% carbohydrates, 3% lipids, 17% proteins and 21% fibres) ad libitum (UAR of 0.4 Dietex, Villemoisson-sur-Orge, France) for 2 weeks. The animals are cared for in accordance with French regulations on the protection of animals used for experimental and scientific purposes (D 2001-486) and with the Regulations of the European Community (Official Journal of the European Community, L538 12:18:1986).
(§2) After the acclimatization period, the rats are randomly divided into 2 groups.
(§3) In the “citrulline” group (CIT, n=19), the rats are fed ad libitum for 12 weeks with a citrulline-based supplement (1 g.kg^−1.day^−1 of citrulline) mixed with their standard diet. The dose of citrulline is calculated by extrapolation of the doses used in humans, taking into account the fact that the metabolic rate and nitrogen requirements are 10 times greater in rodents than those measured in humans and very close to the dose of arginine administered to rats for 12 weeks by Jobgen W. et al. (J Nutr 2009;139:230-7). […]

polyamines = test: Level of polyamines in liver, jejunum and ileum of aged rats
Method: as §1, §2
In the “citrulline” group (CIT, n=19), the rats are fed ad libitum for 12 weeks with a citrulline-based supplement (1 g.kg^−1.day^−1 of citrulline) mixed with their standard diet. The dose of citrulline is calculated by extrapolation of the doses used in humans, taking into account the fact that the metabolic rate and nitrogen requirements are 10 times greater in rodents than those measured in humans and very close to the dose of arginine administered to rats for 12 weeks by Jobgen W. et al. (J Nutr 2009;139:230-7). This dose corresponds to approximately 9% of the nitrogen intake, i.e. approximately 7g/day in the healthy adult volunteer.
In the “non-essential amino acids” group (NEAA, n=20), the rats are fed ad libitum for 12 weeks with a standard food rendered isonitrogenous with respect to the citrulline group by the addition of non-essential amino acids: […], serine, alanine and glycine in an equimolar ratio.
The rats are euthanized in the post-absorptive state after treatment for 12 weeks. The statistical studies are carried out using Statview® software

aged healthy rats = test: Mortality over 12 weeks in aged healthy rats fed supplemented diet; details: rats aged 20 months, supplemented diet ad libitum for 12 weeks; NEAA vs CIT p<0.05
Method: as §1, §2, §3

NC(=O)NCCCC(N)C(=O)O (stereo not drawn) [CIT, 2-amino-5-(carbamoylamino)pentanoic acid]
effect of supplementation on body weight ([1]; 12 weeks, 1 g.kg^-1.day^-1 in the diet): does not affect the body weight
Final body weight ([1]; after the 12-week supplementation, NEAA vs CIT N.S): 630 ± 13
Initial body weight ([1]; before the 12-week supplementation, NEAA vs CIT N.S): 669 ± 16
incidence of tumours (rats with tumours/rats assessed) (tumours): 0/19
effect of supplementation on putrescine (polyamines; 12 weeks of supplementation): significant increase
Ileum putrescine (polyamines; after 12 weeks, p 0.028): 79.8 ± 25
Liver putrescine (polyamines; after 12 weeks, p 0.034): 17.1 ± 14.5
Ileum spermidine (polyamines; after 12 weeks, p NS): 374 ± 70
Ileum spermine (polyamines; after 12 weeks, p NS): 203 ± 43
Jejunum putrescine (polyamines; after 12 weeks, p NS): 82.7 ± 36
Jejunum spermidine (polyamines; after 12 weeks, p NS): 478 ± 200
Jejunum spermine (polyamines; after 12 weeks, p NS): 297 ± 88
Liver spermidine (polyamines; after 12 weeks, p NS): 372 ± 90
Liver spermine (polyamines; after 12 weeks, p NS): 557 ± 245
mortality over 12 weeks (dead rats/rats in group) (aged healthy rats): 0/19
